# What was measured:
# [1] = target: T1, purified human TYMS (Homo sapiens, UniProt P04818); experiment: Tritium-based TYMS catalytic activity assay; type: biochemical
# T1 construct: 6xHis (N); made in house; host or cells: E. coli BL21 (DE3), vector pQE80L-hTYMS
# Protocol: To determine the inhibition of TYMS activity, we utilized a tritium-based TYMS catalytic assay (Figure 1A) to quantify the conversion of dUMP, which is proportional to TYMS activity ([33]). The assay was based on a previously published protocol ([33]) and modified to determine the amount of purified human TYMS (hTYMS) to be used in the conversion of dUMP to dTMP. […]
# Tritium based TYMS catalytic activity assay
# The catalytic activity of TYMS was determined by measuring the release of [3H] from [5-3H]dUMP (ViTrax, Cat # VT122) resulting from the conversion of dUMP to dTMP as previously described (2, 3).
# The reaction conditions were optimized to determine the amount of TYMS protein needed to establish […]
# reactions performed without TYMS or without the 5,10-methylene tetrahydrofolate (5,10-mTHF) cofactor (Supplemental Figure 2 and Supplemental methods). Reactions were performed in 50 mM KH2PO4 (Sigma Aldrich, Cat # P0662) at pH 7.2 using 2 µg of purified human TYMS. Reactions were performed in a final volume of 200 µL with 100 mM β-mercaptoethanol (Sigma Aldrich, Cat # M7522), 40 µM dUMP (Sigma Aldrich, Cat # D3876), 100 µM 5,10-mTHF, and the [5-3H]dUMP tracer (ViTrax, Cat # VT122) accounting for 0.06% of the final dUMP concentration in the reaction. The 5,10-mTHF used in the reaction was separately generated from tetrahydrofolic acid (Sigma Aldrich, Cat # T3125) by dissolving the solid in 10 mM KH2PO4 with 143 mM β-mercaptoethanol (1:100 from 14.3 M pure liquid), and 6.35 mM formaldehyde (Sigma Aldrich, Cat # 47608) to yield a 100 mM stock solution of 5,10- mTHF. Reactions were initiated by the addition of the dUMP substrate and 5,10-mTHF cofactor, then incubated at 37 °C for 30 minutes. […]
# before the reaction was initiated by the addition of the dUMP substrate and 5,10-mTHF cofactor.
# Reactions were terminated by the addition of 100 µL of ice-cold 20% trichloroacetic acid (Sigma Aldrich, Cat # T6399), then excess [5-3H]dUMP was removed by the addition of 200 µL of an albumin-coated activated charcoal solution. The albumin-coated activated charcoal solution was prepared by mixing 10 g of acid- washed activated dextran coated charcoal (Sigma Aldrich, Cat # C6241) with 2.5 g of bovine albumin (Sigma Aldrich, Cat # A1933) in 100 mL of H2O. The suspension was incubated at room temperature for 30 minutes and then centrifuged for 30 minutes at 10,000 x g. Then 150 µL of the supernatant was collected and added to 5 mL of ultima gold liquid scintillation cocktail (Perkin Elmer, Cat # 6013326, lot: 77-19085), and scintillation measurements were perform using a liquid scintillation counter (Beckman Coulter LS6500) to determine [3H]H2O levels in each sample. For all experiments, positive control reactions were performed with no drug representing 100% TYMS activity, and negative
# [2] = in vivo; conditions: NSG, mouse, po
# Protocol: Maximum tolerated dose (MTD)
# experiment) or 5, 10, 25 or 50 mg/kg of 5-FU daily during 5 consecutive days. After 3 treatment cycles,
# animals rested (no treatment) for one more week before euthanasia. Body weight and physical status
# of all mice were closely monitored. Tissues were collected and fixed in alcoholic formalin to test for
# daily during 5 consecutive days for 3 weeks. After 3 treatment cycles, animals rested (no treatment) for
# one more week before euthanasia. Body weight and physical status of all mice were closely monitored.
# Tissues were collected and fixed in alcoholic formalin to test for toxicity.
# Specimens were fixed in alcoholic formalin for 48h and then transferred to 70% ethanol, processed and
# embedded in paraffin. Tissues were serially sectioned and stained by conventional H&E. Slides were
# [3] = target: T1, purified human TYMS; experiment: Competitive drug displacement assay (tritium TYMS assay); type: biochemical
# Protocol: For these experiments the TYMS protein was first incubated with each drug, and the reaction was then initiated by addition of 5,10-mTHF and dUMP using different concentrations of either 5,10-mTHF or dUMP to change the substrate/drug ratio. If there was competition between one of the substrates and the drug for the same binding site, then increasing the substrate concentration would displace more of the prebound drug and shift the equilibrium toward the enzyme/substrate complex, thus allowing the conversion of dUMP to proceed (Figure 7A). […]
# all components including 2 µg TYMS protein to show the range of the assay, the background signal, and the dependence on 5,10-mTHF (Supplemental Figure 2C). To determine the signal from the [5-3H]dUMP tracer used in each reaction the same amount of the dUMP substrate with the [5-3H]dUMP tracer accounting for 0.06% of the final dUMP concentration was added directly to 5 mL of ultima gold liquid scintillation cocktail (Supplemental Figure 2C).
# All reactions were performed in biological duplicate and technical duplicate. Results were analyzed using GraphPad Prism 9.
# Competitive drug displacement assay
# The tritium based TYMS catalytic activity assay was modified to determine if TYMS inhibition from 19-S, 19-S5, and 19-S7 was the result of competitive binding with either the dUMP substrate or the 5,10-mTHF cofactor. The competitive drug displacement assay utilized the standard reaction conditions for the tritium-based TYMS catalytic activity assay including 40 µM dUMP (Sigma Aldrich, Cat # D3876) with the [5- 3H]dUMP tracer (ViTrax, VT122) accounting for 0.06% of the final dUMP concentration and 100 µM 5,10- methylene tetrahydrofolate (defined as 1x dUMP and 1x 5,10-mTHF). Concentrations of total dUMP and 5,10- mTHF were then changed relative to these 1x concentrations to concisely indicate the changes in either the substrate or cofactor concentration. The highest 5x concentration of 5,10 - […]
# 5x concentration of total dUMP was not limited by solubility, although increases were performed in the same increments as 5,10-mTHF for comparison and 0.06% of the [5-3H]dUMP tracer was maintained at all concentrations. The remaining components in each 200 µL reaction were consistent in all reactions and included 2 µg of purified human TYMS in 50 mM KH2PO4 (Sigma Aldrich, Cat # P0662) and 100 mM β- mercaptoethanol (Sigma Aldrich, Cat # M7522). Control antifolate inhibitor PEM (Sigma Aldrich, Cat # PHR1596) was performed for reference of a TYMS specific classical antifolate and to […]
# Human TYMS and DHFR preparation
# Human Thymidylate Synthase (hTYMS) and human Dihydrofolate Reductase (hDHFR) were both expressed in BL21 (DE3) E. coli cells, using a standard BL21 transformation protocol, with the expression vector pQE80L-hTYMS (gift from Maria Paola Costi, University of Modena and Reggio Emilio, Italy) and pET100/D- TOPO (Invitrogen, Cat # K10001), respectively. Both vectors contained an N-terminal 6x Histidine tag attached to either hTYMS or hDHFR. After bacterial transformation, cells
# [4] = target: T2, DHFR (Homo sapiens, UniProt P00374); experiment: Absorbance-based DHFR activity assay; type: biochemical; conditions: Figure 6D
# T2 construct: purchased Sigma D6566 (kit CS0340)
# T2 sequence (P00374 1-187): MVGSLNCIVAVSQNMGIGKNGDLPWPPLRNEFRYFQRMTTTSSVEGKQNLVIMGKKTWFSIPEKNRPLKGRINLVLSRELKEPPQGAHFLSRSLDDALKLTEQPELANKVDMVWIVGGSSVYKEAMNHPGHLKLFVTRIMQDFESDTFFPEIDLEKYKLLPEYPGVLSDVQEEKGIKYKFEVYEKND
# Protocol: DHFR assay kit (Sigma Aldrich, Cat # CS0340) as described by the manufacturer. 0.1-unit DHFR
# analogues or control drugs, 6 μL NADPH Cat # N6505 solution and 5 μl of dihydrofolic acid (DHFR
# substrate) (Sigma, Cat # D7006). The reaction was then read on the spectrophotometer at 340 nm at
# 22 °C every 15 seconds for 2.5 minutes.
# [5] = TS preincubated with drug, Figure 7
# T1 sequence (P04818 whole entry): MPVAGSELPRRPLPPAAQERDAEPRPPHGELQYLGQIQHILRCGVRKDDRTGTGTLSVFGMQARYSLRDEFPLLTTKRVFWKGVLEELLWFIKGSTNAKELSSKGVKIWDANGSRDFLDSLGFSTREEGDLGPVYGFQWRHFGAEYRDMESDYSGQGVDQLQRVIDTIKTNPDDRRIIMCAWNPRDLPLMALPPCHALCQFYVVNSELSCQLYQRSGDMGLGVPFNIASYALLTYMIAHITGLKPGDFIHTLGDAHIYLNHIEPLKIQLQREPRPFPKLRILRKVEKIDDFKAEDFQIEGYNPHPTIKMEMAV
smiles,measurement,setting,value
CCc1nc(N)nc(N)c1-c1ccc(N(C)Cc2ccc3c(c2)OCO3)c([N+](=O)[O-])c1 [Compound 19-S7],"TS activity, screen of 19-S series analogs","[1]; 250 μM, Figure 6A",inhibited TYMS activity
same,"TS activity, comparison at decreasing drug concentrations",[1]; Figure 6C,greater TYMS inhibition than both MTX and PEM
same,MTD at 3 weeks,[2],25 mg/kg
same,Mechanism of TYMS inhibition,[3],blocking the folate-binding site
same,"dUMP conversion with increasing 5,10-mTHF concentration",[3]; [5],increased the amount of dUMP conversion
same,dUMP conversion with increasing dUMP concentration,[3]; [5],the amount of dUMP conversion did not increase
same,"DHFR activity, comparison at reduced drug concentrations",[4],potent TYMS and DHFR inhibition

# — article PMC10386886, “First-in-class multifunctional TYMS nonclassical antifolate inhibitor with potent in vivo activity that prolongs survival” (JCI Insight, 2023)
